Where “and” joins values, the source holds several entries; their conditions need not be identical. Identical values can stand only once. Like-named read-outs stand apart in the source and are kept apart here.
How the values were obtained:
horses = conditions: 2 g/12 h/IV for 8 days; cited from earlier work
[1] = system: dogs diagnosed with idiopathic epilepsy; experiment: Efficacy of gabapentin vs phenobarbital against idiopathic epilepsy in dogs (seizure episodes, adverse effects); format: in vivo; conditions: for Seizure number per month prior to the study: baseline; for Seizure number per month prior to the study / Changes in the type of seizure / Clinical adverse effects observed / Seizure number per month after the study: individual dogs; for Seizure number per month after the study: monitored 3 months
Method: a) G0-E Group: treated with phenobarbital at dose of 2 mg/Kg of body weight, every 12 hours.
b) G1-E Study Group: treated with gabapentin of 10 mg/Kg of body weight, divided 3 times a day by oral administration.
c) G2-E Study Group: treated with gabapentin of 20 mg/Kg of body weight, divided 3 times a day by oral administration.
Patients were monitored for 3 consecutive months, quantifying seizure episodes for each of the patients, obtaining the following: […]

[2] = system: dogs with moderate to severe osteoarthritis; experiment: Pain caused by osteoarthritis in dogs, Subjective Clinical Evaluation System; format: in vivo; conditions: for Subjective Clinical Evaluation System, global observations: Medians±EE; for Result for the pain treatment (different pain assessment questionnaires): dogs with osteoarthritis, oral, every 12 hours, 8 weeks
Method: (§1) In addition to the tests performed for the treatment of epilepsy, the effect of gabapentin in the pain treatment in dogs caused by osteoarthritis was evaluated, 30 animals of race, age, weight and variable sex were used, with 3/5 of body condition and clinical and radiological signs from moderate to severe of osteoarthritis, according to the Bioarth scale. Two study groups were formed:
(§2) a) G0-D Group: treated with fluoxetine at dose of 1 mg/Kg of body weight, every 12 hours, orally.
(§3) b) G1-D Group: treated with gabapentin of 1.5-10 mg/Kg of body weight, every 12 hours, orally.
(§4) The dogs were monitored 8 consecutive weeks by applying the questionnaires of the Subjective Clinical Evaluation System, Liverpool Osteoarthritis in Dogs and the Helsinki Chronic Pain Index to the owners of the dogs, before and after administration of the treatments.
The Subjective Clinical Evaluation System includes the following evaluation points:
3) Mobility of the affected joint: (0) No limitation of movement and no crepitus is palpable, (1) slight decrease in range of motion (10-20%), no crepitus is palpable, (2) slight decrease in range of motion (10-20%) with palpable crepitation, (3) moderate decrease in range of motion (20-50%) and (4) severe decrease in range of motion (>50%) with palpable crepitus.
4) Hold the contralateral limb high: (0) quickly accept to raise the contralateral limb, (1) offer resistance to the contralateral limb elevation, but maintain its weight on the affected limb for more than one minute, (2) offer moderate resistance to the elevation of the contralateral limb and replaces it after 30 seconds, (3) it offers resistance to the elevation of the contralateral limb and replaces it after 10 seconds and (4) refuses to elevate the contralateral limb.
Statistically significant values were considered for a level of p<0.05.

[3] = system: dogs with moderate to severe osteoarthritis; experiment: Pain caused by osteoarthritis in dogs, Liverpool Osteoarthritis in Dogs questionnaire; format: in vivo; parameters: scale not given here; conditions: Medians±EE
Method: as §1, §2, §3, §4
The results of the global observations made by the owners with the Liverpool Osteoarthritis in Dogs questionnaire expressed in Medians±EE are presented in Table 3. The Wilcoxon ranks test was performed using the SPSS Statistics program considering statistically significant values for a level of p<0.05.

[4] = system: dogs with moderate to severe osteoarthritis; experiment: Pain caused by osteoarthritis in dogs, Helsinki Chronic Pain Index questionnaire; format: in vivo; conditions: Medians±EE
Method: as §1, §2, §3, §4
The results of the global observations made by the owners with the Helsinki Chronic Pain Index questionnaire expressed in Medians±EE are presented in Table 3. The Wilcoxon ranks test was performed using the SPSS Statistics program considering statistically significant values for a level of p<0.05.

calf dehorning = conditions: gabapentin 15 mg/Kg oral, alone or with meloxicam; cited from earlier work
neuropathic pain = conditions: individually, maximum effect at 60 minutes post-treatment, cited from earlier work
[5] = horses, cited from earlier work
[6] = horses; 5 mg/Kg oral; cited from earlier work
[7] = reported in dogs; cited from earlier work
cats [8] = conditions: cited from earlier work
dogs [9] = conditions: cited from earlier work
dogs [10] = conditions: cited from earlier work; remark: listed apart in the source
cats [11] = conditions: for 10 and 12 days; cited from earlier work
plasma proteins = conditions: cited from earlier work
[12] = G1-E, gabapentin 10 mg/Kg divided 3 times a day, oral
[13] = G2-E, gabapentin 20 mg/Kg divided 3 times a day, oral
[14] = G1-D, gabapentin 1.5-10 mg/Kg every 12 hours orally, WEEK 0
[15] = G1-D, gabapentin 1.5-10 mg/Kg every 12 hours orally, WEEK 4
[16] = G1-D, gabapentin 1.5-10 mg/Kg every 12 hours orally, WEEK 8
[17] = G1-D, gabapentin 1.5-10 mg/Kg every 12 hours orally, WEEK 1
[18] = G1-D, gabapentin 1.5-10 mg/Kg every 12 hours orally, WEEK 2
[19] = G1-D, gabapentin 1.5-10 mg/Kg every 12 hours orally, WEEK 3
[20] = G1-D, gabapentin 1.5-10 mg/Kg every 12 hours orally, WEEK 5
[21] = G1-D, gabapentin 1.5-10 mg/Kg every 12 hours orally, WEEK 6
[22] = G1-D, gabapentin 1.5-10 mg/Kg every 12 hours orally, WEEK 7
[23] = G0-E, phenobarbital 2 mg/Kg every 12 hours
[24] = G0-D, fluoxetine 1 mg/Kg every 12 hours orally, WEEK 0
[25] = G0-D, fluoxetine 1 mg/Kg every 12 hours orally, WEEK 4
[26] = G0-D, fluoxetine 1 mg/Kg every 12 hours orally, WEEK 8
[27] = G0-D, fluoxetine 1 mg/Kg every 12 hours orally, WEEK 1
[28] = G0-D, fluoxetine 1 mg/Kg every 12 hours orally, WEEK 2
[29] = G0-D, fluoxetine 1 mg/Kg every 12 hours orally, WEEK 3
[30] = G0-D, fluoxetine 1 mg/Kg every 12 hours orally, WEEK 5
[31] = G0-D, fluoxetine 1 mg/Kg every 12 hours orally, WEEK 6
[32] = G0-D, fluoxetine 1 mg/Kg every 12 hours orally, WEEK 7

CCCCC1C(=O)N(c2ccccc2)N(c2ccccc2)C1=O [phenylbutazone]
adverse effects of claudication treatment (horses): gastric ulcers and necrotizing colitis with protein loss

NCC1(CC(=O)O)CCCCC1 [Gabapentin]
Reduction of seizures ([1]; 10 mg/kg oral, month 3 of treatment, best result of the doses evaluated): significant reduction of seizures | Seizure number per month prior to the study [1, 12]: 11 and 4 and 5 (2×) and 8 and 10 and 6 and 1 and 3 and 9 | Changes in the type of seizure [1, 12]: NONE (6×) and PARTIAL CONVULSIONS (4×) | Clinical adverse effects observed [1, 12]: NONE (9×) and LIGHT SEDATION | Seizure number per month after the study [1, 12]: 0 (7×) and RESCUED (2×) and 1 | Seizure number per month prior to the study [1, 13]: 8 (3×) and 2 (2×) and 12 and 6 and 4 (2×) and 3 | Changes in the type of seizure [1, 13]: PARTIAL CONVULSIONS (3×) and NONE (4×) and CLONIC TONIC (3×) | Clinical adverse effects observed [1, 13]: LIGHT SEDATION (3×) and NONE (6×) and SOMNOLENCE | Seizure number per month after the study [1, 13]: 2 (2×) and 0 (4×) and 1 (2×) and RESCUED and 3 | Subjective Clinical Evaluation System, global observations [2, 14]: 9 ± 0.86 | Subjective Clinical Evaluation System, global observations [2, 15]: 4 ± 1.02 | Subjective Clinical Evaluation System, global observations [2, 16]: 6 ± 0.73 | Result for the pain treatment (different pain assessment questionnaires) [2]: significantly favorable | Liverpool Osteoarthritis in Dogs questionnaire [3, 14]: 27 ± 2.85 | Liverpool Osteoarthritis in Dogs questionnaire [3, 17]: 24 ± 2.26 | Liverpool Osteoarthritis in Dogs questionnaire [3, 18]: 22 ± 2.35 | Liverpool Osteoarthritis in Dogs questionnaire [3, 19]: 23 ± 3.15 | Liverpool Osteoarthritis in Dogs questionnaire [3, 15]: 22 ± 3.56 | Liverpool Osteoarthritis in Dogs questionnaire [3, 20]: 26 ± 3.15 | Liverpool Osteoarthritis in Dogs questionnaire [3, 21]: 26 ± 2.86 | Liverpool Osteoarthritis in Dogs questionnaire [3, 22]: 23 ± 2.67 | Liverpool Osteoarthritis in Dogs questionnaire [3, 16]: 20 ± 2.35 | Helsinki Chronic Pain Index questionnaire [4, 14]: 22 ± 1.75 | Helsinki Chronic Pain Index questionnaire [4, 17]: 15 ± 3.23 | Helsinki Chronic Pain Index questionnaire [4, 18]: 20 ± 2.87 | Helsinki Chronic Pain Index questionnaire [4, 19]: 15 ± 3.06 | Helsinki Chronic Pain Index questionnaire [4, 15]: 18 ± 2.98 | Helsinki Chronic Pain Index questionnaire [4, 20]: 17 ± 3.68 | Helsinki Chronic Pain Index questionnaire [4, 21]: 18 ± 3.03 | Helsinki Chronic Pain Index questionnaire [4, 22]: 18 ± 2.8 | Helsinki Chronic Pain Index questionnaire [4, 16]: 16 ± 2.42 | average daily gain compared to the control (calf dehorning): significantly decreases | concentration of substance P compared to the control (calf dehorning): significantly decreases | antihyperalgesic effect (neuropathic pain; gabapentin 17.8 mg/Kg subcutaneously): 55% | half-life ([5]; 20 mg/kg IV): 8.5 h | half-life ([5]; 20 mg/kg p.o.): 7.7 h | half-life [6]: 3.4 h | half-life [7]: 3.4 h

CCC1(c2ccccc2)C(=O)NC(=O)NC1=O [Phenobarbital, phenobarbital]
Seizure number per month prior to the study [1, 23]: 3 and 11 and 13 and 2 (3×) and 8 and 7 and 10 and 1 | Clinical adverse effects observed [1, 23]: NONE (6×) and HYPER- and LIGHT SEDATION (3×) | Seizure number per month after the study [1, 23]: 0 (5×) and 4 and 1 (4×)

CC(=O)Nc1ccc(O)cc1 [paracetamol]
toxic dose (cats [8]): 50 mg/kg | toxic dose (dogs [9]): 150 mg/kg

CC(=O)Oc1ccccc1C(=O)O [acetylsalicylic acid]
dose at which vomiting and gastric ulcers have been described (dogs [10]; intake for 1 week): greater than 50 mg/kg/24 h | dose at which vomiting and gastric ulcers have been described (dogs [10]; intake for 4 weeks): > 100 mg/kg/24 h | toxic dose (cats [11]): 80-120 mg/Kg/24 h | bound to plasma proteins (plasma proteins): 90%

CN1CC[C@]23c4c5ccc(O)c4O[C@H]2[C@@H](O)C=C[C@H]3[C@H]1C5 [morphine]
antihyperalgesic effect (neuropathic pain; morphine 3.2 mg/Kg subcutaneously): 51.7%

CNCCC(Oc1ccc(C(F)(F)F)cc1)c1ccccc1 (centres unmarked) [Fluoxetine]
Subjective Clinical Evaluation System, global observations [2, 24]: 8.5 ± 0.51 | Subjective Clinical Evaluation System, global observations [2, 25]: 8.5 ± 1.19 | Subjective Clinical Evaluation System, global observations [2, 26]: 8 ± 1.79 | Result for the pain treatment (different pain assessment questionnaires) [2]: significantly favorable | Liverpool Osteoarthritis in Dogs questionnaire [3, 24]: 26 ± 2.2 | Liverpool Osteoarthritis in Dogs questionnaire [3, 27]: 23.5 ± 5.4 | Liverpool Osteoarthritis in Dogs questionnaire [3, 28]: 26 ± 5.19 | Liverpool Osteoarthritis in Dogs questionnaire [3, 29]: 22.5 ± 4.52 | Liverpool Osteoarthritis in Dogs questionnaire [3, 25]: 22.5 ± 4.38 | Liverpool Osteoarthritis in Dogs questionnaire [3, 30]: 23 ± 2.95 | Liverpool Osteoarthritis in Dogs questionnaire [3, 31]: 23 ± 2.56 | Liverpool Osteoarthritis in Dogs questionnaire [3, 32]: 22.5 ± 1.95 | Liverpool Osteoarthritis in Dogs questionnaire [3, 26]: 20.5 ± 1.35 | Helsinki Chronic Pain Index questionnaire [4, 24]: 21.5 ± 2.43 | Helsinki Chronic Pain Index questionnaire [4, 27]: 20.5 ± 3.66 | Helsinki Chronic Pain Index questionnaire [4, 28]: 20 ± 3.1 | Helsinki Chronic Pain Index questionnaire [4, 29]: 15.5 ± 3.1 | Helsinki Chronic Pain Index questionnaire [4, 25]: 15.5 ± 2.56 | Helsinki Chronic Pain Index questionnaire [4, 30]: 15 ± 1.54 | Helsinki Chronic Pain Index questionnaire [4, 31]: 14 ± 2.35 | Helsinki Chronic Pain Index questionnaire [4, 32]: 13.5 ± 1.55 | Helsinki Chronic Pain Index questionnaire [4, 26]: 13.5 ± 1.41
